Measured values as given in patent publication US20220315967A1, “METHODS FOR PRODUCING D-TRYPTOPHAN AND SUBSTITUTED D-TRYPTOPHANS” (priority 2019, published 2022).
Read-outs that look alike come from different tables or passages of the source.

Columns and labels:
[1] = target: T1, IvoA (Emericella nidulans, UniProt C8V7P4); assay: Biocatalytic stereoinversion or deracemization of tryptophan and substituted tryptophans by IvoA (chiral-HPLC); type: biochemical, Aspergillus nidulans; details: for ee (%): ee of D-enantiomer, 1.5 mM substrates, 5 μM IvoA, 5 mM ATP, 10 mM MgCl2, 100 mM K2HPO4 buffer, pH 7.5
T1 construct: The full-length wild-type IvoA and mutants were expressed in S. cerevisiae JHY686 strain; octahistidine (His8) (N); made in house; host or cells: Saccharomyces cerevisiae JHY686
Method: […] The solvent was removed in vaccuo by speedvac and the residue was dissolved in ethanol and analyzed by chiral-HPLC by using a Crownpak® CR(+) column (150 mm×4 mm×3.5 μm, Daicel) at room temperature. The mobile phase was aq. HClO4 1% (w/v) supplemented with 15% (v/v) MeOH and the flow rate was 1.0 ml/min.

[2] = target: T2, IvoA-C (Emericella nidulans, UniProt C8V7P4); assay: Thioesterase assay of standalone IvoA-C with synthetic thioester substrates; type: biochemical, Aspergillus nidulans; details: pH 6.9, boiled enzyme control
T2 construct: were incubated with standalone IvoA C domain at pH 6.9; hexahistidine (His6) with TEV protease site (N); made in house; host or cells: E. coli BL21(DE3)
Method: FIG. 17 provides data and associated schematics for an In vitro assay of IvoA-C with synthetic thioester substrates. Synthetic thioester substrates (DL-tryptophan-S—N-acetylcysteamine, DL-Trp-SNAC: D-tryptophan-S-pantatheine, D-Trp-pant) were incubated with standalone IvoA C domain at pH 6.9. Enzymes were boiled to measure the nonenzymatic hydrolysis. Free tryptophan and tryptophanyl thioesters were separated by HPLC.
The thioesterase activity assay of standalone IvoA-C was performed in ammonium acetate buffer (20 mM, pH=6.9). Typically, 5 mM synthetic substrate (5% DMSO) was incubated with 50 μM enzyme. The reaction was analyzed by HPLC. Boiled enzyme was used as control to measure the background nonenzymatic hydrolysis.

[3] = target: T3, IvoA A domain (Emericella nidulans, UniProt C8V7P4, S785A); assay: Hydroxylamine-based colorimetric adenylation assay; type: biochemical, Aspergillus nidulans
T3 construct: The full-length wild-type IvoA and mutants were expressed in S. cerevisiae JHY686 strain; octahistidine (His8) (N); made in house; host or cells: Saccharomyces cerevisiae JHY686
Method: FIG. 9 provides data showing Hydroxylamine-based colorimetric assay for studying substrate specificity of IvoA A domain. The reaction condition is 2 μM of IvoA-T^0+3 mM of ATP+0.1 mM of carboxylic acid substrate+15 mM hydroxylamine+15 mM MgCl2 in Tris buffer (pH 8.0). The reaction is quenched after 3 hrs by addition of equivalent volume (150 μL) of stopping solution (10% (w/v) FeCl3.H2O and 3.3% (w/v) trichloroacetic acid dissolved in 0.7 M HCl). The precipitated enzyme was removed by centrifugation and the supernatant was measured for its absorbance at 540 nm.
FIG. 19 provides data showing Adenylation assay of IvoA A domain with substituted tryptophan amino acids. The reaction was performed similarly according to the assay described in the caption of FIG. 9.

[4] = Apparent steady-state kinetics of L-tryptophan stereoinversion by IvoA and mutants (chiral-HPLC quantification of D-tryptophan); type: biochemical, Aspergillus nidulans; details: for kcat^app / Km: L-tryptophan stereoinversion; for Km: read-out: Km^app
Method: FIG. 11 provides data showing the Apparent steady-state kinetics of IvoA catalyzed stereoinversion. […] The kinetic constants were shown in the main text. For WT, 1 μM enzyme was used in each assay and the reaction was quenched after 2 min. For E0 mutant, 10 μM enzyme was used in each assay and the reaction was quenched after 60 min. For C0 mutant, 50 μM enzyme was used in each assay and the reaction was quenched after 60 min.
Chiral-resolution allowed us to determine the apparent steady-state kinetics by quantifying D-tryptophan formation (Table 1, FIG. 11). […] Both E and C domains are catalytically important for IvoA, as inactivating either domain by mutating the catalytic histidine residues (H963A and H1428A) substantially compromised the apparent turnover number kcat (420-fold by E^0 while 4700-fold by C^0).
The ATP-dependent stereoinversion activity was typically performed with 2-5 μM IvoA, 1 mM L/D-tryptophan, 3 mM ATP and 10 mM MgCl2 in 100 mM phosphate buffer (pH 7.5), and the reaction was quenched by mixing with 5-volume of methanol. The solvent was removed in vaccuo by speedvac and the residue was dissolved in ethanol and analyzed by chiral-HPLC by using a Crownpak® CR(+) column (150 mm×4 mm×3.5 μm, Daicel) at room temperature. The mobile phase was aq. HClO4 1% (w/v) supplemented with 15% (v/v) MeOH and the flow rate was 1.0 ml/min.

[5] = enzyme >50 μM, overnight incubation
Method: The reaction condition is 100 μM of IvoA+2 mM of ATP+1 mM of L-tryptophan+1 mM of AcCoA+5 mM MgCl2 in phosphate buffer (pH 7.5).
Acetyltryptophan acetyltransferase activity was performed by incubating 1-100 μM IvoA with 1 mM D-tryptophan or other substrates with 1 mM acetyl-CoA or 1 mM acetyl-phosphate in 100 mM phosphate buffer (pH 7.5). The reaction mixture was incubated at room temperature and the reaction was quenched at different time interval by mixing with 5-fold volume of methanol. The mixture was clarified by centrifugation to remove protein and salts, and the supernatant was dried in vaccuo by using speedvac. The residue was dissolved in methanol and subjected to LC-MS analysis. For ATP-dependent acetyltransferase activity, 1 mM LD-tryptophan, 5 mM ATP, 1 mM CoA and 5 mM MgCl2 were used.

T1 sequence (C8V7P4 other isoform, or with tags, fused parts or gaps): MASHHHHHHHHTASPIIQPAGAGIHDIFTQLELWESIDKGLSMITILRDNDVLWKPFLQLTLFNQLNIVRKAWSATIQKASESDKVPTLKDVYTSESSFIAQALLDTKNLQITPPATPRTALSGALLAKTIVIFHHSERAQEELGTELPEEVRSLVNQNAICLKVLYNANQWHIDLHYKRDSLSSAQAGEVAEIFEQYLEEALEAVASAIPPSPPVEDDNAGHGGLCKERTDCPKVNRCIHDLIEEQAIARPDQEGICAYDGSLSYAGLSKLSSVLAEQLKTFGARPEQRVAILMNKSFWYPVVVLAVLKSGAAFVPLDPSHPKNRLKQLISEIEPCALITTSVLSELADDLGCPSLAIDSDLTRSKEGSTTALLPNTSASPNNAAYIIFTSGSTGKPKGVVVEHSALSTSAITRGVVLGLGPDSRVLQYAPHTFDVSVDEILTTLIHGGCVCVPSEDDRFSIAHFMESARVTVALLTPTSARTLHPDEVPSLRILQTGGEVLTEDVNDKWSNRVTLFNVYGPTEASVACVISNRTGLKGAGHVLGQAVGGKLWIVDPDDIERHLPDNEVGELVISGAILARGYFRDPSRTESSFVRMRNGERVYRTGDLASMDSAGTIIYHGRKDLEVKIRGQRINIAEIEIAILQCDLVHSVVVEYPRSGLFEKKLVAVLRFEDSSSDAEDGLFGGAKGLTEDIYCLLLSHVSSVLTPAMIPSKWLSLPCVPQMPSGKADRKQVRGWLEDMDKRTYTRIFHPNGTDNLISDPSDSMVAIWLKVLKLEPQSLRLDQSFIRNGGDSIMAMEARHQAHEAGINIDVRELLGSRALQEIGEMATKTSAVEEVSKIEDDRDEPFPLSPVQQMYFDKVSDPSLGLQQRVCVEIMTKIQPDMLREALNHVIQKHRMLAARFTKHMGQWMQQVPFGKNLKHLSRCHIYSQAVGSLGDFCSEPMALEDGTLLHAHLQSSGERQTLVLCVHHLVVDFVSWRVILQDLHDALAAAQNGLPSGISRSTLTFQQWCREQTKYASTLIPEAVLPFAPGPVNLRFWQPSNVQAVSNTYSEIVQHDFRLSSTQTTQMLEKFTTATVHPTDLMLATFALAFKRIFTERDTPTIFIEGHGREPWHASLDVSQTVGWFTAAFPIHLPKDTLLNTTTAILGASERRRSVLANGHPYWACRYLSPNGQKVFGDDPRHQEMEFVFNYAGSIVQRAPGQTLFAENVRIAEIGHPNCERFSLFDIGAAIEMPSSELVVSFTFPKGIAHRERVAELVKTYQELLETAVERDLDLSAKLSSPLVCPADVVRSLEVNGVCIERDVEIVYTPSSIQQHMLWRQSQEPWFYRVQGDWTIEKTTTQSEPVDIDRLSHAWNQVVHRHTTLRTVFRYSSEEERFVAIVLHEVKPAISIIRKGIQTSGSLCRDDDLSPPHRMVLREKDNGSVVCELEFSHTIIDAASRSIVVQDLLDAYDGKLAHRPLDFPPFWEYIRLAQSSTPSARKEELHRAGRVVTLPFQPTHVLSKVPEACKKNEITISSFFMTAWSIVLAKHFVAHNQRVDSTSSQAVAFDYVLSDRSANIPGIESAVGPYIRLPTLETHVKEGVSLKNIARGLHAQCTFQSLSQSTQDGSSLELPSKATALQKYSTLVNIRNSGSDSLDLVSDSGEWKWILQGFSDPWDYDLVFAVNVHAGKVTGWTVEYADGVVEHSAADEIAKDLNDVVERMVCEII
T2 sequence (C8V7P4 1325-1477): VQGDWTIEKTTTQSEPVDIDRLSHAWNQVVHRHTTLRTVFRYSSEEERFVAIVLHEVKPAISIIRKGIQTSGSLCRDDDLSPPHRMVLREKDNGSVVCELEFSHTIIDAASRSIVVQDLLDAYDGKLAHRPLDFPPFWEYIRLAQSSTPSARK
T3 sequence (C8V7P4 whole entry S785A): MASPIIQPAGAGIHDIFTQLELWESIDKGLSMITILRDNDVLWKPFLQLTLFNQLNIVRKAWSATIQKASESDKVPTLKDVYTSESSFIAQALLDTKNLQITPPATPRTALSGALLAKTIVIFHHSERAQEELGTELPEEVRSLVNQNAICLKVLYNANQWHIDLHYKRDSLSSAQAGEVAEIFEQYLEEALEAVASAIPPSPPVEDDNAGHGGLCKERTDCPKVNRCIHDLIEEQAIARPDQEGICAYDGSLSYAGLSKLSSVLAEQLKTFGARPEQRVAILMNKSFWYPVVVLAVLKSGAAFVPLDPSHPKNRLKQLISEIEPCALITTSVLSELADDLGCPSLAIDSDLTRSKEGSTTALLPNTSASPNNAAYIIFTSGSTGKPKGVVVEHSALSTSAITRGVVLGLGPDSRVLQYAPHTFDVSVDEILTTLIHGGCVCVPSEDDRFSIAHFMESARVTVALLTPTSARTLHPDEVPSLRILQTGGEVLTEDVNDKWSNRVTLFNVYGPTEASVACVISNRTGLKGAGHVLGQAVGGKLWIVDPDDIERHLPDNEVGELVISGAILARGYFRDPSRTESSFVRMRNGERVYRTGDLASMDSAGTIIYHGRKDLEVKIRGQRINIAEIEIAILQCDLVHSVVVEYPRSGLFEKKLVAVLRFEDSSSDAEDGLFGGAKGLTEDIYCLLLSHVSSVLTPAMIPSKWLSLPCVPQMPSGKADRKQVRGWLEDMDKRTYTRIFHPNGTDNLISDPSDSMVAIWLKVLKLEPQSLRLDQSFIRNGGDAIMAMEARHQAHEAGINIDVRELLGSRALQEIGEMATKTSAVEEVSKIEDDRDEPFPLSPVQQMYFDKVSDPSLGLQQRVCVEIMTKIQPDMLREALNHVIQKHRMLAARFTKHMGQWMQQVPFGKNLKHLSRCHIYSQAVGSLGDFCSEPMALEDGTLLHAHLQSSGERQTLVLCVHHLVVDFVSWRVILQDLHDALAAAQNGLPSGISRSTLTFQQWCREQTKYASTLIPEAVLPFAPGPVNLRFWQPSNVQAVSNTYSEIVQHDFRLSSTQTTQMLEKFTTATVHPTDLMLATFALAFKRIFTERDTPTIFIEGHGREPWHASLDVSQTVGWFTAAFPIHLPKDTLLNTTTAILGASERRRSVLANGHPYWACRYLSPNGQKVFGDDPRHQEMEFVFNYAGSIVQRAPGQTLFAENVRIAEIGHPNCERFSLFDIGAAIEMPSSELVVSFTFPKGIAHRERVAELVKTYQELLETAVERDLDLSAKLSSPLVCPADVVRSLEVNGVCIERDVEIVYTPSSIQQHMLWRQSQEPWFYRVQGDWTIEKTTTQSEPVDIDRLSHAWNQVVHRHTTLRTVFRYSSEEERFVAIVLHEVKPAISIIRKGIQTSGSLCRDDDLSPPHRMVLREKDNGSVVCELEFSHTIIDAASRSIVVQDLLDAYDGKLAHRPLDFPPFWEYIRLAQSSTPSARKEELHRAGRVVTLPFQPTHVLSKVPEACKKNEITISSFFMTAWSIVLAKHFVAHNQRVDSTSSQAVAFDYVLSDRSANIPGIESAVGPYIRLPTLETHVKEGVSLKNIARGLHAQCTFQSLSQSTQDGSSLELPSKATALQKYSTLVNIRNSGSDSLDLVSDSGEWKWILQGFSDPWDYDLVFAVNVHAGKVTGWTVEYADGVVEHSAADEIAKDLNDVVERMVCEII

## Cc1ccc2[nH]cc(CC(N)C(=O)O)c2c1 (stereo not shown) [Entry 15]
[1]
  ee (%): >99%

## CC(C)(CO)[C@@H](O)C(=O)NCCC(=O)NCCSC(=O)[C@H](N)Cc1c[nH]c2ccccc12 [D-Trp-pant, D-tryptophan-S-pantatheine]
[2]
  hydrolysis by IvoA-C versus nonenzymatic: not good substrate

## Cc1cccc2c(CC(N)C(=O)O)c[nH]c12 (stereo not shown) [Entry 17]
[1]
  ee (%): >99%

## Cc1ccc2c(CC(N)C(=O)O)c[nH]c2c1 (stereo not shown) [Entry 16]
[1]
  ee (%): 97%

## NC(Cc1c[nH]c2ccc([N+](=O)[O-])cc12)C(=O)O (stereo not shown) [Entry 4]
[1]
  conversion by IvoA / substrate quality: poor substrates
  ee (%): 44%

## COc1ccc2[nH]cc(C[C@H](N)C(=O)O)c2c1 [Entry 2, 5-OMe-L-tryptophan]
[1]
  ee (%): >99%

## NC(Cc1c[nH]c2ccc(F)cc12)C(=O)O (stereo not shown) [Entry 6]
[1]
  ee (%): >99%

## Cc1[nH]c2ccccc2c1CC(N)C(=O)O (racemic) [Entry 13, 2-Me-DL-tryptophan]
[1]
  conversion by IvoA / substrate quality: No conversion
  ee (%): 1.3%
[3]
  activation by A domain: inefficient activation

## NC(Cc1c[nH]c2cc(F)ccc12)C(=O)O (stereo not shown) [Entry 7]
[1]
  ee (%): >99%

## NC(Cc1c[nH]c2ccc(Cl)cc12)C(=O)O (stereo not shown) [Entry 8]
[1]
  ee (%): >99%

## NC(Cc1c[nH]c2c(Br)cccc12)C(=O)O (stereo not shown) [Entry 12]
[1]
  conversion by IvoA / substrate quality: poor substrates
  ee (%): 87%

## NC(Cc1c[nH]c2cc(Cl)ccc12)C(=O)O (stereo not shown) [Entry 9]
[1]
  ee (%): 98%

## N[C@H](Cc1c[nH]c2ccccc12)C(=O)O [D-tryptophan]
[1]
  conversion by IvoA / substrate quality: cannot convert

## NC(Cc1c[nH]c2ccc(Br)cc12)C(=O)O (stereo not shown) [Entry 10]
[1]
  ee (%): >99%

## WT: wild-type single-module nonribosomal peptide synthetase IvoA from Aspergillus nidulans
[4]
  kcat^app: 0.633 ± 0.05 s⁻¹
  Km: 50 ± 10 µM
[4]; listed as IvoA
  kcat^app: 0.633 s⁻¹
  Km: ~50 µM
[4]; substrate inhibition by L-tryptophan, read-out: Ki^app (substrate inhibition)
  Ki: 4 mM
[5]
  kobs^app of N-acetyl-D-tryptophan formation: < 0.1 h⁻¹

## N#Cc1ccc2[nH]cc(CC(N)C(=O)O)c2c1 (stereo not shown) [Entry 3]
[1]
  conversion by IvoA / substrate quality: poor substrates
  ee (%): 63%

## NC(Cc1c[nH]c2cccc(F)c12)C(=O)O (stereo not shown) [Entry 5]
[1]
  ee (%): >99%

## NC(Cc1c[nH]c2cc(Br)ccc12)C(=O)O (stereo not shown) [Entry 11]
[1]
  conversion by IvoA / substrate quality: poor substrates
  ee (%): 75%

## CC(=O)NCCSC(=O)C(N)Cc1c[nH]c2ccccc12 (racemic) [DL-Trp-SNAC, DL-tryptophan-S—N-acetylcysteamine]
[2]
  hydrolysis by IvoA-C versus nonenzymatic: not good substrate

## N[C@@H](Cc1c[nH]c2ccccc12)C(=O)O [Entry 1, L-tryptophan]
[1]; 1 mM L-tryptophan, chiral-HPLC
  time to complete conversion of L-tryptophan to D-tryptophan: 3 h
[1]
  ee (%): >99%
[3]
  activation by A domain: preferred substrate

## Cc1cccc2[nH]cc(CC(N)C(=O)O)c12 (stereo not shown) [Entry 14]
[1]
  ee (%): >99%
